From US20220257698A1, “ANGIOTENSIN TYPE 2 (AT2) RECEPTOR AGONISTS FOR USE IN THE TREATMENT OF CANCER” (LANTHIOPEP B.V., priority 2019, published 2022)

Experiments:
[1] = test system: colon carcinoma PDX model Co9689A; assay: KcAng(1-7) on growth of colon carcinoma PDX Co9689A in mice; assay type: in vivo, NMRI nu/nu mice (human PDX); conditions: for T/C (treated tumor volume as percent of vehicle control): day 28 (day 41 of study)
Procedure: In vivo studies were conducted at EPO GmbH Berlin. Large studies (FIG. 1A, 2, 3, 4, 5) comprised 3 groups of 10 mice/group and 5 animals as reserve, as outlined in Table 1. Smaller studies (FIG. 1B, 1C, 1D) comprised 2 groups of mice of 3 mice per group. The animals were allocated to the various treatment groups (e.g. 0.2 μg/kg and 30 μg/kg) with a maximum of 10 animals per group. […] The groups received subcutaneous (s.c.) drug injection (for max. 28 days) as outlined in the Table 1.
NMRI nu/nu mice were used in this study. The animals were female at age of 6 to 8 weeks. The respective PDX tumors were inoculated subcutaneously (s.c.), and the tumors were grown to achieve palpable tumor sizes before start of the respective treatments. The PDX included breast (MaCa4151), colon (Co9689A), head & neck (HN10309), lung (Lu7433) and ovarian (OvCa13329) cancer (Table 2).
Treatment with KcAng(1-7) was started with palpable tumors after the randomization of animals regarding tumor volume. KcAng(1-7) was applied s.c. by daily injections at […] or 30 μg/kg dose for a maximum of 28 days (or earlier as defined by the humane end point for the study).
KcAng(1-7) was prepared as follows: The compounds was suspended in sterile PBS resulting in a clear solution. The remains of this formulation were stored at 4° C.
Tumor growth stimulatory or inhibitory activity of the KcAng(1-7) was evaluated by determination of tumor volumes (TV). During the study, tumor volumes and body weight were measured twice a week, and the ratio of the mean tumor volumes between the compound-treated group and the vehicle-treated group (T/C) was calculated.
Tumor volume=(tumor width)×(tumor width)×(tumor length)+2
T/C=T÷C • T: Mean estimated tumor volume of the compound-treated group • C: Mean estimated tumor volume of the vehicle-treated group

[2] = test system: U251MG glioblastoma CDX; assay: Tumor hemoglobin level (indirect angiogenesis) in U251MG CDX; assay type: in vivo, cd1 nu/nu mice (human GBM cell line); conditions: KcAng(1-7) 1 μg/kg/d, Losartan 20 mg/kg/d, or both
Procedure: Efficacy of treatment was evaluated by: […] In brief, tumors were homogenized in double-distilled water. Eighty microliters of homogenates were mixed with 1 mL of Drabkin's solution and incubated for 15 min at room temperature. After centrifugation at 400×g for 5 min, the supernatants were subjected to absorbance measurement at 540 nm. The absorption, which is proportional to hemoglobin concentration, was divided by tumor weight. Effect of KcAng(1-7) and Losartan against heterotopic U251MG cell culture-based xenografts (CDX) in mice. Animals were treated either with vehicle, treated with 20 mg/kg/d Losartan, treated with 1 μ[…](1-7) or treated with a combination of KcAng(1-7) and with Losartan.

[3] = Gr. B 0.2 μg/kg/d s.c., Meas. 1
[4] = Gr. B 0.2 μg/kg/d s.c., Meas. 2
[5] = Gr. B 0.2 μg/kg/d s.c., Meas. 3
[6] = Gr. B 0.2 μg/kg/d s.c., Meas. 4
[7] = Gr. B 0.2 μg/kg/d s.c., Meas. 5
[8] = Gr. B 0.2 μg/kg/d s.c., Meas. 6
[9] = Gr. B 0.2 μg/kg/d s.c., Meas. 7
[10] = Gr. B 0.2 μg/kg/d s.c., Meas. 8
[11] = Gr. B 0.2 μg/kg/d s.c., Meas. 9 (day 28, day 41 of study)
[12] = Gr. C 30 μg/kg/d s.c., Meas. 9 (day 28, day 41 of study)

Lys-Asp-Arg-Val-Abu/Ala-Ile-His-Abu/Ala (KDRVAIHA; not fully specified; cyclic thioether (Abu/Ala bridge); VARIANT (5)..(5) /replace=“Abu”; VARIANT (8)..(8) /replace=“Abu”; SITE (1)..(8) /note=“Variant residues given in the sequence have no preference with respect to those in the annotations for variant positions”) [KcAng(1-7)]
T/C (treated tumor volume as percent of vehicle control) ([1]; 0.2 μg/kg): 58%
T/C (treated tumor volume as percent of vehicle control) ([1]; 30 μg/kg): 45%
effect on tumor growth ([1]; 0.2 and 30 μg/kg, 28 days): statistically significant and dose dependent reduction in tumor growth
RTV Mean [1, 3]: 1
RTV Median [1, 3]: 1
T/C [1, 3]: 99.5%
Tumor Vol. Mean [1, 3]: 0.093 cm^3
Tumor Vol. Median [1, 3]: 0.09 cm^3
RTV Mean [1, 4]: 1.2
RTV Median [1, 4]: 1.2
T/C [1, 4]: 90.3%
Tumor Vol. Mean [1, 4]: 0.107 cm^3
Tumor Vol. Median [1, 4]: 0.108 cm^3
RTV Mean [1, 5]: 1.4
RTV Median [1, 5]: 1.4
T/C [1, 5]: 87.4%
Tumor Vol. Mean [1, 5]: 0.132 cm^3
Tumor Vol. Median [1, 5]: 0.126 cm^3
RTV Mean [1, 6]: 2
RTV Median [1, 6]: 1.9
T/C [1, 6]: 87.1%
Tumor Vol. Mean [1, 6]: 0.188 cm^3
Tumor Vol. Median [1, 6]: 0.139 cm^3
RTV Mean [1, 7]: 2.7
RTV Median [1, 7]: 2.6
T/C [1, 7]: 84.6%
Tumor Vol. Mean [1, 7]: 0.252 cm^3
Tumor Vol. Median [1, 7]: 0.234 cm^3
RTV Mean [1, 8]: 2.8
RTV Median [1, 8]: 2.7
T/C [1, 8]: 80.7%
Tumor Vol. Mean [1, 8]: 0.267 cm^3
Tumor Vol. Median [1, 8]: 0.238 cm^3
RTV Mean [1, 9]: 3.2
RTV Median [1, 9]: 2.8
T/C [1, 9]: 71.6%
Tumor Vol. Mean [1, 9]: 0.272 cm^3
Tumor Vol. Median [1, 9]: 0.214 cm^3
RTV Mean [1, 10]: 2
RTV Median [1, 10]: 1.9
T/C [1, 10]: 58.6%
Tumor Vol. Mean [1, 10]: 0.192 cm^3
Tumor Vol. Median [1, 10]: 0.178 cm^3
RTV Mean [1, 11]: 2.7
RTV Median [1, 11]: 2.5
T/C [1, 11]: 58.1%
Tumor Vol. Mean [1, 11]: 0.257 cm^3
Tumor Vol. Median [1, 11]: 0.219 cm^3
RTV Mean ([1]; Gr. C 30 μg/kg/d s.c., Meas. 1): 1
RTV Median ([1]; Gr. C 30 μg/kg/d s.c., Meas. 1): 1
T/C ([1]; Gr. C 30 μg/kg/d s.c., Meas. 1): 99.5%
Tumor Vol. Mean ([1]; Gr. C 30 μg/kg/d s.c., Meas. 1): 0.093 cm^3
Tumor Vol. Median ([1]; Gr. C 30 μg/kg/d s.c., Meas. 1): 0.097 cm^3
RTV Mean ([1]; Gr. C 30 μg/kg/d s.c., Meas. 2): 1.2
RTV Median ([1]; Gr. C 30 μg/kg/d s.c., Meas. 2): 1.2
T/C ([1]; Gr. C 30 μg/kg/d s.c., Meas. 2): 91.5%
Tumor Vol. Mean ([1]; Gr. C 30 μg/kg/d s.c., Meas. 2): 0.108 cm^3
Tumor Vol. Median ([1]; Gr. C 30 μg/kg/d s.c., Meas. 2): 0.105 cm^3
RTV Mean ([1]; Gr. C 30 μg/kg/d s.c., Meas. 3): 1.3
RTV Median ([1]; Gr. C 30 μg/kg/d s.c., Meas. 3): 1.3
T/C ([1]; Gr. C 30 μg/kg/d s.c., Meas. 3): 80.9%
Tumor Vol. Mean ([1]; Gr. C 30 μg/kg/d s.c., Meas. 3): 0.122 cm^3
Tumor Vol. Median ([1]; Gr. C 30 μg/kg/d s.c., Meas. 3): 0.111 cm^3
RTV Mean ([1]; Gr. C 30 μg/kg/d s.c., Meas. 4): 1.7
RTV Median ([1]; Gr. C 30 μg/kg/d s.c., Meas. 4): 1.5
T/C ([1]; Gr. C 30 μg/kg/d s.c., Meas. 4): 72.1%
Tumor Vol. Mean ([1]; Gr. C 30 μg/kg/d s.c., Meas. 4): 0.156 cm^3
Tumor Vol. Median ([1]; Gr. C 30 μg/kg/d s.c., Meas. 4): 0.125 cm^3
RTV Mean ([1]; Gr. C 30 μg/kg/d s.c., Meas. 5): 2.2
RTV Median ([1]; Gr. C 30 μg/kg/d s.c., Meas. 5): 2.3
T/C ([1]; Gr. C 30 μg/kg/d s.c., Meas. 5): 68.6%
Tumor Vol. Mean ([1]; Gr. C 30 μg/kg/d s.c., Meas. 5): 0.205 cm^3
Tumor Vol. Median ([1]; Gr. C 30 μg/kg/d s.c., Meas. 5): 0.184 cm^3
RTV Mean ([1]; Gr. C 30 μg/kg/d s.c., Meas. 6): 2.5
RTV Median ([1]; Gr. C 30 μg/kg/d s.c., Meas. 6): 2.4
T/C ([1]; Gr. C 30 μg/kg/d s.c., Meas. 6): 72.5%
Tumor Vol. Mean ([1]; Gr. C 30 μg/kg/d s.c., Meas. 6): 0.24 cm^3
Tumor Vol. Median ([1]; Gr. C 30 μg/kg/d s.c., Meas. 6): 0.199 cm^3
RTV Mean ([1]; Gr. C 30 μg/kg/d s.c., Meas. 7): 3
RTV Median ([1]; Gr. C 30 μg/kg/d s.c., Meas. 7): 2.8
T/C ([1]; Gr. C 30 μg/kg/d s.c., Meas. 7): 75.6%
Tumor Vol. Mean ([1]; Gr. C 30 μg/kg/d s.c., Meas. 7): 0.287 cm^3
Tumor Vol. Median ([1]; Gr. C 30 μg/kg/d s.c., Meas. 7): 0.213 cm^3
RTV Mean ([1]; Gr. C 30 μg/kg/d s.c., Meas. 8): 2.2
RTV Median ([1]; Gr. C 30 μg/kg/d s.c., Meas. 8): 1.9
T/C ([1]; Gr. C 30 μg/kg/d s.c., Meas. 8): 63.3%
Tumor Vol. Mean ([1]; Gr. C 30 μg/kg/d s.c., Meas. 8): 0.208 cm^3
Tumor Vol. Median ([1]; Gr. C 30 μg/kg/d s.c., Meas. 8): 0.155 cm^3
RTV Mean [1, 12]: 2.1
RTV Median [1, 12]: 1.8
T/C [1, 12]: 45.3%
Tumor Vol. Mean [1, 12]: 0.201 cm^3
Tumor Vol. Median [1, 12]: 0.134 cm^3
retarded tumor growth ([1]; colon carcinoma PDX upon treatment as in Example 1): ~40%
Tumor hemoglobin level, mean (± SEM) [2]: 18.7 ± 2.1 mg Hb/g of tissue
